# Tests used:
# ESBLs-E. coli [1] = assay: Survival assay in mouse sepsis model; format: in vivo, male Balb/c mice; conditions: text 1.5 mg kg^−1, methods and Fig. 5 legend 4 mg/kg; i.p. at 0.5 and 6 h after infection; n = 10
# Procedure: Male Balb/c mice (6–8 weeks old and weighing 18–22 g) were used in this experiment. The experimental and animal care procedures were approved by the Animal Care and Use Committee of Fourth Military Medical University. All methods were carried out strictly in accordance with the approved guidelines. 4 × 10^5 CFU ESBLs-E. coli in 400 μl M–H broth were administrated intraperitoneally into the mice to construct a sepsis model. Then, the mice were randomly divided to ten groups, which were administered intraperitoneally with 400 μL solutions containing 0.5 (based on ASOs), 1 or 1.5 mg kg^−1 DP-AD7anti-acpP and the counterpart DP-AD7mismatch, 1.5 mg kg^−1 L-DP-AD7anti-acpP, 1.5 mg kg^−1 LF2000-NPsanti-acpP, 4 mg kg^−1 ceftazidime or PBS at 0.5 and 6 h after infection. The surviving mice in each group were monitored every 6 h for the first day, afterwards, monitored every 12 h for 7 days day after infection, and the survival ratio was analyzed by Kaplan–Meier estimator.
# ESBLs-E. coli [2] = assay: Bacterial load (CFU) in organs of septic mice; format: in vivo, male Balb/c mice; conditions: text 1.5 mg kg^−1, methods 4 mg kg^−1; ten hours after infection; mean ± SE
# Procedure: Two mice in each group were sacrificed 10 h after infection to study the bacterial clearance. The liver and kidney were harvested aseptically, one kidney and one lobe of liver of each mouse were weighed, and homogenized in 500 μl sterile saline solution, then 50 μl homogenate sample of each mice was performed serial tenfold dilutions to a 10^–5 dilution. Carefully spread 100 μL of each dilution onto a M–H agarose plate using a glass spreader. Incubate plates at 37 °C overnight and calculate the bacterial load. Colony counts were expressed as CFU g^−1 of tissue.
# [3] = tested on: E. coli, ESBLs-E. coli, S. aureus and MRSA; assay: Delivery efficiency by flow cytometry, tested strains together; format: cell-based; conditions: FAM-labeled, 1 h, 37 °C, flow cytometry (Fig. S9, S10)
# Procedure: To measure the delivery efficiency, FAM-labeled DP-AD were added to bacterial cultures (approximately 5 × 10^6 CFU in 300 μl M–H broth) and incubated at 37 °C for 1 h away from light. The bacterial solutions were centrifuged at 2500 g at 4 °C for 5 min and washed twice with phosphate buffered saline (PBS) before analyzing them using the BL1 (green) channel in flow cytometry (Novocyte, Acer, USA). Data were analyzed using Flowjo software (version 10.0.7, Tree Star, Ashland, OR, USA). Free FAM-labeled ASOs and LF2000-NPs were used as the negative and positive control, respectively.
# To measure the delivery rate of DP-AD7 in different types of bacteria, the bacteria (approximately 5 × 10^6 CFU in 300 μl M–H broth) were incubated with FAM-labeled DP-AD7 for 5, 10, 30 or 60 min at 37 °C or at 4 °C for 60 min in dark, then the bacterial solutions were processed, measured and analyzed as described above.
molecule,measurement,setting,value
CC(C)(O/N=C(\C(=O)N[C@@H]1C(=O)N2C(C(=O)[O-])=C(C[n+]3ccccc3)CS[C@H]12)c1csc(N)n1)C(=O)O [ceftazidime],"Survival rate of septic mice, ceftazidime",ESBLs-E. coli [1],30%
same,"Average bacterial load in the kidney, ceftazidime",ESBLs-E. coli [2],8.41 ± 1.60 × 10^7 CFU g^−1
"Ac-LWALWK(Ac)K(Ac)K(Ac)RRHRRRHR [L-DPP, linear counterpart of DPP7, amphipathic, 9 positive charge and 2 His residues]",Capacity to deliver ASOs into bacteria,[3],failure
